Data on eleven compounds can be found in PubChem BioAssay (NCI).

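96-well plates; 48 h exposure; 5 concentrations. Endpoints by linear interpolation between flanking doses. Not reached: highest tested concentration assigned. GI50 = concentration required for 50% inhibition of growth. TGI: concentration producing complete growth inhibition.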

Among the test systems are A549 NSCLC; M14 melanoma; HL-60(TB) leukemia; NCI-H522 lung; SK-MEL-28 melanoma; HCT-15 colon; OVCAR-3 ovarian; UACC-62 melanoma; SF-295 CNS; MOLT-4 leukemia.
Common to all, as to test: NCI anticancer screen, dose series, 48 h

With `COC(=O)CCC(NC(=S)N/N=C/c1ccco1)C(=O)OC` (configuration not stated), the TGI in the test with A549 NSCLC, in the test with M14 melanoma, with HL-60(TB) leukemia, in the test with NCI-H522 lung, in the test with SK-MEL-28 melanoma and with HCT-15 colon was > 100 µM in each case. In addition, the TGI in the test with OVCAR-3 ovarian, in the test with UACC-62 melanoma and in the test with SF-295 CNS was > 100 µM throughout.
For `O=C(NN1C(=O)CSC12CCCC2)c1[nH]c2ccc(Br)cc2c1-c1ccccc1`, the GI50 in the test on A549 NSCLC is 35.5 µM; in the test with MOLT-4 leukemia it was 21900 nM; in the test on M14 melanoma, 49100 nM; in the test on NCI-H522 lung, 30400 nM; with SK-MEL-28 melanoma, 44 µM; in the test on HCT-15 colon, 43200 nM. Moreover, the GI50 in the test with OVCAR-3 ovarian was 18800 nM; in the test with UACC-62 melanoma, 19700 nM; with SF-295 CNS, 24200 nM. For the same compound, the TGI is > 100 µM in the test with A549 NSCLC; 90.4 µM with MOLT-4 leukemia; > 100 µM in the test with M14 melanoma; > 100 µM with NCI-H522 lung; > 100 µM with SK-MEL-28 melanoma; > 100 µM with HCT-15 colon. Also, the TGI was 56.7 µM with OVCAR-3 ovarian, > 100 µM in the test with UACC-62 melanoma and 69.7 µM in the test on SF-295 CNS.
Consider `COc1cc([C@H]2OC[C@H]3[C@@H]2CO[C@@H]3c2cc(OC)c3c(c2)OCO3)cc(OC)c1OC`, for which the TGI in the test with A549 NSCLC, with M14 melanoma, in the test on HL-60(TB) leukemia, with NCI-H522 lung, in the test with SK-MEL-28 melanoma and in the test on HCT-15 colon was > 100 µM in each case. The TGI in the test on OVCAR-3 ovarian, in the test with UACC-62 melanoma and in the test on SF-295 CNS was > 100 µM each time.
On to `O=[N+]([O-])c1cccc([As]=[As]c2cccc([N+](=O)[O-])c2)c1` (configuration not stated), for which the GI50 in the test with A549 NSCLC is 0.178 µM; in the test with MOLT-4 leukemia it was 104 nM; with M14 melanoma, 136 nM; in the test with NCI-H522 lung it was 15.4 nM; in the test on SK-MEL-28 melanoma it was 0.136 µM; with HCT-15 colon, 43.7 nM. Besides, the GI50 with OVCAR-3 ovarian was 49.9 nM; in the test with UACC-62 melanoma, 88.5 nM; in the test on SF-295 CNS, 178 nM. Also, the TGI worked out at 0.351 µM in the test with A549 NSCLC; 0.353 µM in the test on MOLT-4 leukemia; 0.287 µM with M14 melanoma; 0.0304 µM with NCI-H522 lung; 0.305 µM in the test on SK-MEL-28 melanoma; 0.174 µM in the test with HCT-15 colon. The TGI in the test with OVCAR-3 ovarian came to 0.16 µM; in the test with UACC-62 melanoma, 0.212 µM; in the test on SF-295 CNS, 0.34 µM.
In the case of `C1=C2/CC[C@H](Sc3ccccc3)[C@H]2C2(CCCCC/1)OCCO2`, the TGI with A549 NSCLC is > 100 µM; in the test with M14 melanoma, 93 µM; with HL-60(TB) leukemia it was 65.7 µM; with NCI-H522 lung, 39.6 µM; with SK-MEL-28 melanoma, > 100 µM; in the test with HCT-15 colon, > 100 µM. The TGI with OVCAR-3 ovarian is 81.7 µM; in the test with UACC-62 melanoma, 62.4 µM; in the test on SF-295 CNS, > 100 µM.
Turning to `Cc1ccccc1NC(=O)C(=O)CC(=O)c1c(C)n([O-])c2ccccc2[n+]1=O`, the TGI with A549 NSCLC, in the test with M14 melanoma, in the test on SK-MEL-28 melanoma, in the test on HCT-15 colon, with OVCAR-3 ovarian and in the test on UACC-62 melanoma was > 100 µM each time. In the test with SF-295 CNS, the TGI is > 100 µM.
As for `Cc1ccc(CNc2c3ccccc3nc3cc(NC(=O)CCN4CCCC4)ccc23)cc1`, the GI50 with MOLT-4 leukemia was 316 nM; in the test with M14 melanoma it was 1450 nM; in the test on NCI-H522 lung it was 509 nM; in the test on SK-MEL-28 melanoma, 1.66 µM; in the test on HCT-15 colon, 1290 nM; with OVCAR-3 ovarian it was 768 nM. The GI50 in the test on UACC-62 melanoma was 1400 nM; in the test on SF-295 CNS, 1040 nM. Moreover, the TGI in the test with MOLT-4 leukemia is 1.32 µM; with M14 melanoma, 2.84 µM; in the test with NCI-H522 lung, 1.95 µM; in the test on SK-MEL-28 melanoma, 3.09 µM; in the test on HCT-15 colon, 2.63 µM; with OVCAR-3 ovarian it was 2.11 µM. Further, the TGI with UACC-62 melanoma was found to be 2.74 µM; in the test on SF-295 CNS it was 2.35 µM.
`CCCOC(=O)N1CCN(/[N+]([O-])=N/Oc2ccc([N+](=O)[O-])cc2[N+](=O)[O-])CC1`: the GI50 in the test with A549 NSCLC is 3.85 µM; with MOLT-4 leukemia, 2350 nM; in the test on HL-60(TB) leukemia it was 727 nM; with NCI-H522 lung, 3160 nM; in the test with SK-MEL-28 melanoma, 6.04 µM; in the test on HCT-15 colon, 2200 nM. In addition, the GI50 was 2290 nM in the test on OVCAR-3 ovarian, 2260 nM with UACC-62 melanoma and 3760 nM with SF-295 CNS. Further, the TGI is 22.4 µM in the test with A549 NSCLC; > 100 µM in the test on MOLT-4 leukemia; 8.15 µM in the test on HL-60(TB) leukemia; 15.7 µM with NCI-H522 lung; 39.4 µM in the test on SK-MEL-28 melanoma; 5.65 µM in the test with HCT-15 colon. The values for the TGI in the test on OVCAR-3 ovarian, with UACC-62 melanoma and with SF-295 CNS were 4.48 µM, 5.59 µM and 14.9 µM, respectively.
For `O=C(c1ccccc1)c1cccc(C(=O)c2ccccc2)c1`, the TGI with A549 NSCLC, in the test on MOLT-4 leukemia, in the test with M14 melanoma, in the test on NCI-H522 lung, with SK-MEL-28 melanoma and in the test with OVCAR-3 ovarian was > 100 µM each time. In addition, the TGI in the test with UACC-62 melanoma and in the test with SF-295 CNS was > 100 µM in each case.
`C[C@]12CC[C@H]3[C@@H](CC[C@]4(O)C[C@@H](O)CC[C@]34/C=N/O)[C@@]1(O)CC[C@@H]2C1=COC(=O)C1`: the TGI in the test with A549 NSCLC worked out at 0.115 µM; in the test with M14 melanoma, 0.657 µM; with NCI-H522 lung, 0.371 µM; with SK-MEL-28 melanoma, 2.06 µM; in the test with HCT-15 colon, 0.45 µM; in the test on OVCAR-3 ovarian, 0.349 µM. In addition, the TGI in the test on UACC-62 melanoma is 0.919 µM; with SF-295 CNS it was 0.386 µM.
Consider `NC(=O)c1c(NC(=O)c2ccc3c(c2)OCO3)sc2c1CCC(=O)C2`, for which the GI50 in the test on A549 NSCLC was 3.44 µM; in the test on M14 melanoma, 590 nM; in the test on HL-60(TB) leukemia, 554 nM; with NCI-H522 lung, 355 nM; in the test on SK-MEL-28 melanoma, 3 µM; in the test with SF-295 CNS it was 2310 nM. The TGI with A549 NSCLC is > 100 µM; in the test with M14 melanoma, > 100 µM; in the test with HL-60(TB) leukemia, 8.28 µM; with NCI-H522 lung, 2.29 µM; with SK-MEL-28 melanoma it was > 100 µM; in the test on SF-295 CNS, 6.71 µM.
